Experimental data taken from patent publication US20220331257A1, “LIQUID PHARMACEUTICAL COMPOSITIONS WITH STABLE DRUG RELEASE PROFILES” (Avadel Legacy Pharmaceuticals, LLC, priority 2019, published 2022).

Key:
[1] = Osmolality of saturated solutions of drugs in water (vapor pressure osmometer); assay type: physicochemical
[2] = Solubility of drugs in water (saturated solutions); settings: saturated solution in water
[3] = Saturation of the continuous phase by the drug; assay type: physicochemical; settings: continuous phase 60 wt % maltitol, 0.2 wt % xanthan gum, about pH 7.2
Experimental: A “continuous phase” or “liquid phase” as used herein, refers to the fluid or liquid phase of the suspension in which the particles are dispersed. The continuous phase may not be saturated by the drug. “Not saturated by the drug” as used herein refers to the amount of drug in the continuous phase being less than the amount at which the continuous phase is saturated with the drug at the temperature at which the saturation is measured. The temperature at which saturation is measured corresponds to the temperature at which stability is performed. In an example, saturation is measured at 30° C.

[4] = Osmolality of osmotic agent solutions (external phase); assay type: physicochemical; settings: for Osmolality (extrapolated): third order polynomial fit
Excerpt: In these attempts, the osmolality ratio of the composition was greater than 1 (measured at ambient temperature using a vapor pressure osmometer (model Vapro 5600 XR from ELITech/WESCOR) with a measurement range from 20 mosmol/kg to 3500 mosmol/kg).
To determine the osmolality of the external phase of the compositions, it was assumed that only the osmotic agent contributed to the external phase's osmolality because, in addition to the osmotic agent, the external phase contained only minimal amounts of the suspending agent (e.g., 0.1-0.2 wt %). Measurements were obtained experimentally up to 40 wt % sorbitol and up to 50 wt % maltitol and then extrapolated to 60 wt % using a fit with a third order polynomial form (Table 2). Measurements were also obtained for a commercially available sorbitol solution, NEOSORB® 70/70B, containing 70% of dry substance and a minimum of 74% sorbitol in the dry substance (Table 2).

SMILES	Osmolality of saturated solution ([1]; 25° C.) [mosmol/kg]	Solubility ([2]; 25° C.) [mg/g]	Osmolality (experimental) ([4]; dry matter content 10% (wt %)) [mOsm/kg sol]	Osmolality (extrapolated) ([4]; dry matter content 10% (wt %)) [mOsm/kg]	Osmolality (experimental) ([4]; dry matter content 20% (wt %)) [mOsm/kg sol]	Osmolality (extrapolated) ([4]; dry matter content 20% (wt %)) [mOsm/kg]	Osmolality (experimental) ([4]; dry matter content 30% (wt %)) [mOsm/kg sol]	Osmolality (extrapolated) ([4]; dry matter content 30% (wt %)) [mOsm/kg]	Osmolality (experimental) ([4]; dry matter content 40% (wt %)) [mOsm/kg sol]	Osmolality (extrapolated) ([4]; dry matter content 40% (wt %)) [mOsm/kg]	Osmolality (extrapolated) ([4]; dry matter content 50% (wt %)) [mOsm/kg]	Osmolality (extrapolated) ([4]; dry matter content 60% (wt %)) [mOsm/kg]	also measured
Cc1ccc(=O)n(-c2ccccc2)c1 [Pirfenidone, pirfenidone]	84	18	–	–	–	–	–	–	–	–	–	–	–
COc1ccccc1OCC(O)CO (centres unmarked) [guaifenesin]	–	–	–	–	–	–	–	–	–	–	–	–	saturation of the continuous phase by the drug [3]: 15.3 mg/g
OC[C@@H](O)[C@@H](O)[C@H](O)[C@@H](O)CO [Sorbitol, sorbitol]	–	–	599	610	1376	1364	2407	2426	4125	4122	6816	10777	Osmolality (experimental) ([4]; dry matter content 5% (wt %)): 276 mOsm/kg sol; Osmolality (extrapolated) ([4]; dry matter content 5% (wt %)): 269 mOsm/kg; Osmolality (experimental) ([4]; dry matter content 15% (wt %)): 954 mOsm/kg sol; Osmolality (extrapolated) ([4]; dry matter content 15% (wt %)): 960 mOsm/kg; Osmolality (experimental) ([4]; dry matter content 25% (wt %)): 1844 mOsm/kg sol; Osmolality (extrapolated) ([4]; dry matter content 25% (wt %)): 1830 mOsm/kg

Now from value to compound, other results behind:

Osmolality of saturated solution ([1]; 25° C.) [mosmol/kg]	Solubility ([2]; 25° C.) [mg/g]	Osmolality (experimental) ([4]; dry matter content 10% (wt %)) [mOsm/kg sol]	Osmolality (extrapolated) ([4]; dry matter content 10% (wt %)) [mOsm/kg]	Osmolality (experimental) ([4]; dry matter content 20% (wt %)) [mOsm/kg sol]	Osmolality (extrapolated) ([4]; dry matter content 20% (wt %)) [mOsm/kg]	Osmolality (experimental) ([4]; dry matter content 30% (wt %)) [mOsm/kg sol]	Osmolality (extrapolated) ([4]; dry matter content 30% (wt %)) [mOsm/kg]	Osmolality (experimental) ([4]; dry matter content 40% (wt %)) [mOsm/kg sol]	Osmolality (extrapolated) ([4]; dry matter content 40% (wt %)) [mOsm/kg]	Osmolality (extrapolated) ([4]; dry matter content 50% (wt %)) [mOsm/kg]	Osmolality (extrapolated) ([4]; dry matter content 60% (wt %)) [mOsm/kg]	SMILES	also measured
–	–	333	330	779	791	1340	1322	2265	2277	3879	6538	OC[C@@H](O)[C@@H](O[C@H]1O[C@H](CO)[C@@H](O)[C@H](O)[C@H]1O)[C@H](O)[C@@H](O)CO [maltitol]	Osmolality (experimental) ([4]; dry matter content 50% (wt %)): 3882 mOsm/kg sol
74	14	–	–	–	–	–	–	–	–	–	–	CC(=O)Nc1ccc(O)cc1 [Acetaminophen, acetaminophen]	Osmolality of saturated solution ([1]; 40° C.): 112 mosmol/kg; Solubility ([2]; 40° C.): 20 mg/g
–	2.5	–	–	–	–	–	–	–	–	–	–	CC(=O)Oc1ccccc1C(=O)O [Aspirin, aspirin]	–
